Source: ChEMBL document CHEMBL1201862, “PubChem BioAssay data set” (2004)
Calls of active or inactive are those of the source.

What was measured:
[1] = target: T1, High affinity choline transporter 1 (Homo sapiens, UniProt Q9GZV3); experiment: human choline transporter blockers, potency – cell-based, 5-point CRC, membrane potential dye, dose response (AID 504840); format: functional
T1 sequence (Q9GZV3 whole entry): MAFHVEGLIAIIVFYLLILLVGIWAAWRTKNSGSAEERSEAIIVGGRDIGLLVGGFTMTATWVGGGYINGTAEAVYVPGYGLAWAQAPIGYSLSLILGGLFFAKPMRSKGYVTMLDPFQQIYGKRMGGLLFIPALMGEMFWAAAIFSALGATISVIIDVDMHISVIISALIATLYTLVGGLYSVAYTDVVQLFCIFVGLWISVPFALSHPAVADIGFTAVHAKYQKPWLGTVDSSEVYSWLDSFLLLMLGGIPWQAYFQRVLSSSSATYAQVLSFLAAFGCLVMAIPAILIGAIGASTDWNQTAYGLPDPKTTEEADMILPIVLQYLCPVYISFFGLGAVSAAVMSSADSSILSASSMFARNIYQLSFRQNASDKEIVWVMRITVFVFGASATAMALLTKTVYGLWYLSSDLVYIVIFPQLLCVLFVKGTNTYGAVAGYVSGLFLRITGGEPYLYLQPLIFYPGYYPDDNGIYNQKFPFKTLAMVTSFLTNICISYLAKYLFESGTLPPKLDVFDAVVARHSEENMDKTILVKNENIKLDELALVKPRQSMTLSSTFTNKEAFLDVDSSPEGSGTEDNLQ

[2] = target: T1, High affinity choline transporter 1; experiment: human choline transporter blockers, potency – cell-based, 10-point CRC, membrane potential dye, dose response (AID 588401); format: functional;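 further: membrane potential dye fluorescence of choline-evoked depolarization via CHT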
[3] = Trypanosoma cruzi growth suppression in host cells – NIH3T3 host cells, beta-gal luminescence, confirmation (AID 2044); format: functional, cell-based;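 further: intracellular parasites grown in NIH/3T3 mouse fibroblasts as host cells; luminescent beta-galactosidase reporter signal from transgenic T. cruzi replicating inside host cells; inhibitors lower the luminescence signal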
[4] = NIH3T3 cell viability loss – ATP luminescence, mouse fibroblasts, counter-screen, dose response (AID 2010); format: functional, cell-based;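 further: cells exposed to compound for about 90 hours before reading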
[5] = target: Botulinum neurotoxin type A (Clostridium botulinum (strain Hall / ATCC 3502 / NCTC 13319 / Type A), UniProt P0DPI1); experiment: High-throughput multiplex microsphere dose response for inhibitors of toxin protease, specifically Botulinum neurotoxin light chain A protease, compounds from Cherry Pick 02.; format: functional; details: read-out: EC50_MICROM
[6] = target: Lethal factor (Bacillus anthracis, UniProt P15917); experiment: High-throughput multiplex microsphere dose response for inhibitors of toxin protease, specifically Lethal Factor protease, compounds from Cherry Pick 02.; format: functional; details: read-out: EC50_MICROM
[7] = target: Botulinum neurotoxin type F (Clostridium botulinum, UniProt P30996); experiment: High-throughput multiplex microsphere dose response for inhibitors of toxin protease, specifically Botulinum neurotoxin light chain F protease, compounds from Cherry Pick 02.; format: functional; details: read-out: EC50_MICROM
[8] = system: Streptococcus sp. 'group A'; experiment: Streptococcus pyogenes SK(-)GAS viability under kanamycin – luminescence, BacTiterGlo, confirmation, counter-screen for streptokinase expression inhibitor project, dose response (AID 1900); format: functional, organism-based
[9] = target: T2, Streptokinase A (Streptococcus pyogenes serotype M1, UniProt P10520); experiment: viability-normalized secreted streptokinase activity reduction – plasminogen activation absorbance, OD405, dose response (AID 1914); format: functional, Streptococcus pyogenes M1 GAS;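 further: secreted streptokinase activity via plasminogen activation per viability signal from cell pellet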
T2 sequence (P10520 whole entry): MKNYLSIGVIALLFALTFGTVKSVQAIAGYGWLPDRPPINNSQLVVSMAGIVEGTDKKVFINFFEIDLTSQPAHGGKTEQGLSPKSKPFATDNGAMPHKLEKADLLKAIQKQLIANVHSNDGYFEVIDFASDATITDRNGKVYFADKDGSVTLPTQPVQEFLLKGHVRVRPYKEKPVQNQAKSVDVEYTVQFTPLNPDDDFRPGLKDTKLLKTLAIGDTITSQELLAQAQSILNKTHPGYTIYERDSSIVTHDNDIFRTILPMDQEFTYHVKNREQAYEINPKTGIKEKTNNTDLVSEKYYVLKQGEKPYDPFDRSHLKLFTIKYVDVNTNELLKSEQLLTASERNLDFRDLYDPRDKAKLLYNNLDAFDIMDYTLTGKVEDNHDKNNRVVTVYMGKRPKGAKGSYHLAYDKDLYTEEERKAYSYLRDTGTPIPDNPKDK

[10] = viability of PTEN-deleted HCT116 cells – cell-based, HCT116 PTEN knockout, dose response (AID 1047); format: functional;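 further: HCT116 colon tumor cells with PTEN knocked out; cells exposed to compound for 60 hours before readout; potency for loss of cell viability measured by luminescence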
[11] = target: T3, Sphingosine 1-phosphate receptor 4 (Homo sapiens, UniProt O95977); experiment: Late stage fluorescence dose response cell-based screening assay for antagonists of the Sphingosine 1-Phosphate Receptor 4 (S1P4). [Related pubchem assays: 1524 (Confirmation screen (S1P4 antagonists).), 1510 (Primary screen (S1P4 antagonists).), 1853 (Summary AID (S1P4 antagonists).), 1692 (Dose response screen (S1P4 antagonists).)]; format: functional
T3 sequence (O95977 whole entry): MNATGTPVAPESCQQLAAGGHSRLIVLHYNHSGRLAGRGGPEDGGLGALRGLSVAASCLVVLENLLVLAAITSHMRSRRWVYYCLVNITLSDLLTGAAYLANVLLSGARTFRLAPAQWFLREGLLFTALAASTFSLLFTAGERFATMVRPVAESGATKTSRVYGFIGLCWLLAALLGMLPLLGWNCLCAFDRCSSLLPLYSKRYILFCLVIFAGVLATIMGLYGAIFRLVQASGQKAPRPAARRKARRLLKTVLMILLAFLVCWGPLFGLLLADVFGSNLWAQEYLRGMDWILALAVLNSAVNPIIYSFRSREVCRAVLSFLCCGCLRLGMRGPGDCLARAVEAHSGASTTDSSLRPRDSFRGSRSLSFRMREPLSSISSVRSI

[12] = viability of HCT116 lacking mutant beta-catenin – cell-based, human colon tumor, dose response (AID 1045); format: functional;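 further: HCT116 colon tumor cells with beta catenin knocked out; cells exposed to compound for 60 hours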
[13] = target: T3, Sphingosine 1-phosphate receptor 4; experiment: Fluorescence dose response cell-based high throughput screening assay for antagonists of the Sphingosine 1-Phosphate Receptor 4 (S1P4). [Related pubchem assays: 1524 (Confirmation in triplicates.), 1510 (Primary screen.)]; format: functional
[14] = target: Sphingosine 1-phosphate receptor 1 (Homo sapiens, UniProt P21453); format: functional;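 further: Tango beta-arrestin reporter U2OS cells stimulated with S1P near its EC80; inhibitor potency meaning antagonism of receptor activation by the natural agonist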
[15] = system: Streptococcus; experiment: GAS UMAA2166 growth inhibition – luminescence, BacTiterGlo, counter-screen for streptokinase expression inhibitor project, dose response (AID 1915); format: functional, organism-based;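 further: potency for reduction of bacterial viability or growth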
[16] = Luminescence Cell-Based Dose Retest to Confirm Inhibitors of Cancer Stem Cells. [Related pubchem assays (depositor defined):AID2717, AID2721]; format: functional; details: Homo sapiens
[17] = target: T4, Replicative DNA helicase DnaB (Mycobacterium tuberculosis, UniProt P9WMR3); experiment: DnaB intein splicing inhibitors, dose response, biochemical, cell-free fluorescence (AID 449749); format: functional
T4 sequence (P9WMR3 whole entry): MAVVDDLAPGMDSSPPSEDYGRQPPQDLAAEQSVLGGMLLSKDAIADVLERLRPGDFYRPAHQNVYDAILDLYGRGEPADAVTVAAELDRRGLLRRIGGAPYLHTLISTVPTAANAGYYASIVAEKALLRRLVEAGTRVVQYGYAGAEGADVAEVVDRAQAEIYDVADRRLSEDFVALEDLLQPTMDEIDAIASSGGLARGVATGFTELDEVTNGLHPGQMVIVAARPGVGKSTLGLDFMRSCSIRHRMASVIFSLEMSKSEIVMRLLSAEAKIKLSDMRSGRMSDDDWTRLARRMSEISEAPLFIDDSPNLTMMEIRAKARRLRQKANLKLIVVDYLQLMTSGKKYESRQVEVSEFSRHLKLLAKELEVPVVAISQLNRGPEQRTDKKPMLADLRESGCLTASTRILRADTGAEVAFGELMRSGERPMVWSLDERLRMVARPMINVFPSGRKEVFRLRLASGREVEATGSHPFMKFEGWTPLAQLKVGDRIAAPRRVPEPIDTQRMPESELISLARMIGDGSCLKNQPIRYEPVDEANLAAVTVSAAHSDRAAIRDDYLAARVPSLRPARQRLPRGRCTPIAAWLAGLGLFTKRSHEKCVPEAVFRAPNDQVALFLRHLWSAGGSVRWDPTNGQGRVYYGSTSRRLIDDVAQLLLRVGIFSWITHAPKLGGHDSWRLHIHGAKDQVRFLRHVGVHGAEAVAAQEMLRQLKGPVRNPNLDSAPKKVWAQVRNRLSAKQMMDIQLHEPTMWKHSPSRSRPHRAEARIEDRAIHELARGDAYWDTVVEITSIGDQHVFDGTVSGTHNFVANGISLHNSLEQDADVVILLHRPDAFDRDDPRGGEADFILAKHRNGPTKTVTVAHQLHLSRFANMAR

[18] = target: T5, Protein RecA (Mycobacterium tuberculosis, UniProt P9WHJ3); experiment: Fluorescence Cell-Free Homogeneous Dose Retest to Identify Inhibitors of RecA-Intein Splicing Activity. [Related pubchem assays (depositor defined):AID2097, AID2223, AID489010, AID492950]; format: functional
T5 sequence (P9WHJ3 whole entry): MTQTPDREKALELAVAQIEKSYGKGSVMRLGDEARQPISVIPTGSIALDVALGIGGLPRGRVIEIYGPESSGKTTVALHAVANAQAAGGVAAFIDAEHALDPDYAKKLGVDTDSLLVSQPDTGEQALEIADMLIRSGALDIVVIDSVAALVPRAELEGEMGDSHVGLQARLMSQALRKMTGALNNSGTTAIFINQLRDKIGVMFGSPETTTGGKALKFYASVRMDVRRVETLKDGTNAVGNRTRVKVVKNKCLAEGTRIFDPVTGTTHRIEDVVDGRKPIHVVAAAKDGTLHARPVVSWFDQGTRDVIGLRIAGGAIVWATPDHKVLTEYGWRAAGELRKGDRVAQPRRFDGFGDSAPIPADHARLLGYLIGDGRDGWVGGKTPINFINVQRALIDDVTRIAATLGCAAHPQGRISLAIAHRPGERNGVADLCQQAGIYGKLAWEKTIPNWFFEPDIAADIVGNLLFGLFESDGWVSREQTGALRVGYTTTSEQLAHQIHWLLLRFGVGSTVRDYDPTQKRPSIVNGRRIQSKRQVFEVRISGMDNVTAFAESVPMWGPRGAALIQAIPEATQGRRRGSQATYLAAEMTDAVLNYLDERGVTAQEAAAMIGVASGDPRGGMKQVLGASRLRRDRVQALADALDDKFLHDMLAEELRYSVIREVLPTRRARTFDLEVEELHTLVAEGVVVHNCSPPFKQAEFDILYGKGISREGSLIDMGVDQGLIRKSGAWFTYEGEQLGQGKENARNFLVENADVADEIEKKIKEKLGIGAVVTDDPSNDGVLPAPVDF

[19] = target: Melanocortin receptor 4 (Homo sapiens, UniProt P32245); experiment: inhibitors of MC4R cAMP signaling – cell-based, TR-FRET, biased antagonists, dose response (AID 602298); format: functional;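 further: antagonist potency against agonist-stimulated cAMP production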
[20] = cAMP pathway inhibition in counterscreen cell line – TR-FRET cAMP detection, counter-screen for MC4R biased antagonist project, dose response (AID 602305); format: functional, cell-based;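 further: U2OS cells stimulated with forskolin near its EC80 as the cAMP inducer; potency is for inhibition of forskolin-stimulated cAMP signaling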

Sequence of Botulinum neurotoxin type A (P0DPI1 2-448 limits assumed): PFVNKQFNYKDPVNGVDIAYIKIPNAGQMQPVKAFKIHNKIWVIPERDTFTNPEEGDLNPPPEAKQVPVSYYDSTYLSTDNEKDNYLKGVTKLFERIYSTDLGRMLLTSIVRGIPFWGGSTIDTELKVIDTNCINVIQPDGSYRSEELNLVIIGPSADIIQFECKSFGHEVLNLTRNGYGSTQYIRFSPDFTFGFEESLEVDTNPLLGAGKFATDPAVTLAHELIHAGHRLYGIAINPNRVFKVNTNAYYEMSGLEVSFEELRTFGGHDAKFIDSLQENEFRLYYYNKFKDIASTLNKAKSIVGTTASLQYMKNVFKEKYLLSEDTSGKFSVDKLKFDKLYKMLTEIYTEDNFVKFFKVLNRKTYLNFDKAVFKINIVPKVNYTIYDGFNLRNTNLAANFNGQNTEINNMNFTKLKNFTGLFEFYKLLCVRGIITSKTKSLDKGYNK
Sequence of Sphingosine 1-phosphate receptor 1 (P21453 whole entry): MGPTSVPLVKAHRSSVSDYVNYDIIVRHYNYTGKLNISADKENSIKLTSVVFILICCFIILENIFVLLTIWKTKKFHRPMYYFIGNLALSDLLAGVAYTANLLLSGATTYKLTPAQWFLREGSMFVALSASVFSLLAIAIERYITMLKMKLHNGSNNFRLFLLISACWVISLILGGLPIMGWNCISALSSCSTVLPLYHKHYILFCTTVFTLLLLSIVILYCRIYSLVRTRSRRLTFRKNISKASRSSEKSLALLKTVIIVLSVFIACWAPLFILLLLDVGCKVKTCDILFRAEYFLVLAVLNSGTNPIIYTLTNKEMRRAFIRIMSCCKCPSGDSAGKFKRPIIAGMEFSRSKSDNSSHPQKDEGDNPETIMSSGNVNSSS
Sequence of Melanocortin receptor 4 (P32245 whole entry): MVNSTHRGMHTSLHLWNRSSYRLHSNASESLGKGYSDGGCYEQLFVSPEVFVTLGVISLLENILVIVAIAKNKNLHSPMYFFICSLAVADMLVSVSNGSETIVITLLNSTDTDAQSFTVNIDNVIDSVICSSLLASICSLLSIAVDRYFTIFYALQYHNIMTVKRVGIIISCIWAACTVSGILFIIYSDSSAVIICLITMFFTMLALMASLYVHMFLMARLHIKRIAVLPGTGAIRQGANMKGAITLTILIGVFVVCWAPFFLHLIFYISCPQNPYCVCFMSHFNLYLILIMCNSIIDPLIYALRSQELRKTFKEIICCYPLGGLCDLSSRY
Sequence of Botulinum neurotoxin type F (P30996 1-436 limits assumed): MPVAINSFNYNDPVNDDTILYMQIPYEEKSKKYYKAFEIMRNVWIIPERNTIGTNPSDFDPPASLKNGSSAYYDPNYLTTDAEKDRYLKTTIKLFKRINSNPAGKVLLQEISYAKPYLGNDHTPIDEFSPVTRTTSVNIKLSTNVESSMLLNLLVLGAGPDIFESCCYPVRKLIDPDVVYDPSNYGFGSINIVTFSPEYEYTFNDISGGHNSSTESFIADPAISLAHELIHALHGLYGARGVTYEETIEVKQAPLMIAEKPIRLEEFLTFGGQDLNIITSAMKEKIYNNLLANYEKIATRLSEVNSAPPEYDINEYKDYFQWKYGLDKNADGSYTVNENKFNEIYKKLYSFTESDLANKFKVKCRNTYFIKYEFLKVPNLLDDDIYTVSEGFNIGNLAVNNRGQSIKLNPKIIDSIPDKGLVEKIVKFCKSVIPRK
Sequence of Lethal factor (P15917 whole entry): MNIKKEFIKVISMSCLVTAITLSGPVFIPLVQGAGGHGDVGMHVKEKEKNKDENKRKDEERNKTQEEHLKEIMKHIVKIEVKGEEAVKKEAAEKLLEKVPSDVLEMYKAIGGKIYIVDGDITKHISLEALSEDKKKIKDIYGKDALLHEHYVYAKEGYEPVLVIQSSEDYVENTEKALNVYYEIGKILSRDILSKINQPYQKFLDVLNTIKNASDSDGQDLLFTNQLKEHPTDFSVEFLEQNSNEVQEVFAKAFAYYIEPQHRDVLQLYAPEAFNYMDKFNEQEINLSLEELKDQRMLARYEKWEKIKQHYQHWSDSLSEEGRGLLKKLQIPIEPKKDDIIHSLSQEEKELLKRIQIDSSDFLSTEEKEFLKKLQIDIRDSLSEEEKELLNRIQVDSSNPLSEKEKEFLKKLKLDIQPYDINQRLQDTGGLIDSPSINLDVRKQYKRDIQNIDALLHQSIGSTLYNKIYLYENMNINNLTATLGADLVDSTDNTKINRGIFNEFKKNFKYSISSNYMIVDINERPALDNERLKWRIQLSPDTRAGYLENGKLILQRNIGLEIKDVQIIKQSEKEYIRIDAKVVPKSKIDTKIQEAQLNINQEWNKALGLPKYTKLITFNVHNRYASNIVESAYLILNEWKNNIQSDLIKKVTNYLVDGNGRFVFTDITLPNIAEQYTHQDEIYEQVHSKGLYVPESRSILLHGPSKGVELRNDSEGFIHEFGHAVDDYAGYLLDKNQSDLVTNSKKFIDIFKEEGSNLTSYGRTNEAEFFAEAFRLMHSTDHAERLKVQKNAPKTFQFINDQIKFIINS

Q: With `Clc1cc(I)cc(Cl)c1N=C1NCCN1` as the compound, how does the IC50 [1] read?
A: Its IC50 is 1.12 µM (active).

Q: What about the IC50 [2] of the same compound?
A: Its IC50 is 0.843 µM (active).

Q: What does the source list for `Cc1cc2ccccc2n1CCNC(=O)COc1ccccc1`?
A: EC50 [3]: 1.16 µM (active); EC50 [4]: > 30 µM (not active); EC50 [5]: 4.9 µM (active); EC50 [6]: 1.4 µM (active); EC50 [7]: > 20 µM (inactive)

Q: What does the source list for `O=[N+]([O-])c1cc(S(=O)(=O)C(F)(F)F)ccc1Sc1nc2ccccc2[nH]1`?
A: EC50 [8]: 5.93 µM (active); EC50 [9]: > 150 µM (not active); EC50 [10]: 7.22 µM (active); IC50 [11]: 0.77 µM (active); EC50 [12]: 6.72 µM (active); IC50 [13]: 1.29 µM (active); IC50 [14]: 34.3 µM (not active); EC50 [15]: 11.9 µM (active); AC50 [16]: 4.04 µM (active); AC50 [17]: 2.83 µM (active); EC50 [18]: 0.774 µM (active); IC50 [19]: 7.65 µM (active); IC50 [20]: > 64.6 µM (inactive)
